# Experimental data from ChEMBL document CHEMBL4364276, “Discovery of 4-phenyl-2H-benzo[b][1,4]oxazin-3(4H)-one derivatives as potent and orally active PI3K/mTOR dual inhibitors” (Eur J Med Chem, 2019).
# Target: Phosphatidylinositol 4,5-bisphosphate 3-kinase catalytic subunit alpha isoform (Homo sapiens, UniProt P42336)
# Assay: Inhibition of recombinant human full length N-terminal GST-tagged PI3Kalpha (1 to 1068 residues)/PIK3R1 (1 to 724 residues) expressed in baculovirus expression system using PIP2 as substrate incubated for 1 hr by ADP-Glo assay
# Settings: not given
# Phosphatidylinositol 4,5-bisphosphate 3-kinase catalytic subunit alpha isoform, sequence (P42336 whole entry, looked up, the tested form may be a part, canonical isoform): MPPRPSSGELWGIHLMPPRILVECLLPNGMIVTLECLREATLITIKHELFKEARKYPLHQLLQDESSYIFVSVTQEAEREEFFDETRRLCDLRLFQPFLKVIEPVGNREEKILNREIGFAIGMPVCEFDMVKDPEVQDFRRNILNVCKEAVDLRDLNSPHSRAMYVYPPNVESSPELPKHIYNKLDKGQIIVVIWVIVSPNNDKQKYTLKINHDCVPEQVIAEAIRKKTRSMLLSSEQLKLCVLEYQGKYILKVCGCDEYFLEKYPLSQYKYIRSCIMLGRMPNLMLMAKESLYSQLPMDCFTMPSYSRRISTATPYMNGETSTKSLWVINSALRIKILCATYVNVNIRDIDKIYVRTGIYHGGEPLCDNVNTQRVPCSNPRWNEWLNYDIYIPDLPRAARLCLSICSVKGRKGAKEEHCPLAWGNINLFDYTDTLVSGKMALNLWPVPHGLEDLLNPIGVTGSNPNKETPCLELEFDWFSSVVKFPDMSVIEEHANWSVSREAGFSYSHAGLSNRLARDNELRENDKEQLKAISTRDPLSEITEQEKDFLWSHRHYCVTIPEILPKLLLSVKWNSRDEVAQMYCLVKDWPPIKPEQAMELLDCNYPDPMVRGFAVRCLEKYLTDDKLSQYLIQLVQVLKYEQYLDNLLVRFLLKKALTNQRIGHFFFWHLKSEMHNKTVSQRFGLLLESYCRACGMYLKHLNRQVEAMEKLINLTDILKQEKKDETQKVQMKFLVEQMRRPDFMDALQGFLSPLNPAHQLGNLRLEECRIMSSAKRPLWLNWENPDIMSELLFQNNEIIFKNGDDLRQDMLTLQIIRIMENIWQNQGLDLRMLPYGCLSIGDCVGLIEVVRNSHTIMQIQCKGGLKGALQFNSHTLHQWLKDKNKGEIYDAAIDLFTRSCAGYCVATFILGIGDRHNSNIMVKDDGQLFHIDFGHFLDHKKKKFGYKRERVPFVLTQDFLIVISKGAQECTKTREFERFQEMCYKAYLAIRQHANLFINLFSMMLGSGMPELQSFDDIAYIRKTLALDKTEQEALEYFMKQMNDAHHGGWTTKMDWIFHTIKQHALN
row,Compound,IC50
1,COc1ccc(N2C(=O)COc3ccc(-c4cccc(NS(=O)(=O)c5ccc(F)cc5)c4)cc32)cc1,> 1 µM
2,COc1ncc(-c2ccc3c(c2)N(C2CCCCC2)C(=O)CO3)cc1NS(=O)(=O)c1ccc(F)cc1,> 1 µM
3,O=C1COc2ccc(-c3ccc(O)cc3)cc2N1c1ccc(Cl)cc1,> 1 µM
4,Cc1ccc(N2C(=O)COc3ccc(-c4cnc(Cl)c(NS(=O)(=O)c5ccc(F)cc5)c4)cc32)cc1,0.0041 µM
5,O=C1COc2ccc(-c3cnc4ccccc4c3)cc2N1c1ccc(Cl)cc1,> 1 µM
6,O=C1COc2ccc(-c3ccc(O)cc3)cc2N1,> 1 µM
7,COc1ncc(-c2ccc3c(c2)N(c2ccc(F)cc2)C(=O)CO3)cc1NS(=O)(=O)c1ccc(F)cc1,0.021 µM
8,O=C1COc2ccc(-c3cnc(Cl)c(NS(=O)(=O)c4ccc(F)cc4)c3)cc2N1C1CC1,0.086 µM
9,O=C1COc2ccc(-c3cccc(NS(=O)(=O)c4ccc(F)cc4)c3)cc2N1C1CC1,> 1 µM
10,COc1ccc(N2C(=O)COc3ccc(-c4ccc(O)cc4)cc32)cc1,> 1 µM
11,Cc1ccc(N2C(=O)COc3ccc(-c4ccc(O)cc4)cc32)cc1,> 1 µM

# System: HepG2
# Assay: cells
# Settings: Homo sapiens, HepG2, 72 h
row,Compound,IC50
1,COc1ccc(N2C(=O)COc3ccc(-c4cccc(NS(=O)(=O)c5ccc(F)cc5)c4)cc32)cc1,29.8 µM
2,COc1ncc(-c2ccc3c(c2)N(C2CCCCC2)C(=O)CO3)cc1NS(=O)(=O)c1ccc(F)cc1,> 40 µM
3,O=C1COc2ccc(-c3ccc(O)cc3)cc2N1c1ccc(Cl)cc1,> 40 µM
4,Cc1ccc(N2C(=O)COc3ccc(-c4cnc(Cl)c(NS(=O)(=O)c5ccc(F)cc5)c4)cc32)cc1,39.6 µM
5,O=C1COc2ccc(-c3cnc4ccccc4c3)cc2N1c1ccc(Cl)cc1,32.7 µM
6,O=C1COc2ccc(-c3ccc(O)cc3)cc2N1,38.1 µM
7,COc1ncc(-c2ccc3c(c2)N(c2ccc(F)cc2)C(=O)CO3)cc1NS(=O)(=O)c1ccc(F)cc1,36.4 µM
8,O=C1COc2ccc(-c3cnc(Cl)c(NS(=O)(=O)c4ccc(F)cc4)c3)cc2N1C1CC1,8.51 µM
9,O=C1COc2ccc(-c3cccc(NS(=O)(=O)c4ccc(F)cc4)c3)cc2N1C1CC1,> 40 µM
10,COc1ccc(N2C(=O)COc3ccc(-c4ccc(O)cc4)cc32)cc1,10.8 µM
11,Cc1ccc(N2C(=O)COc3ccc(-c4ccc(O)cc4)cc32)cc1,> 40 µM

# System: HeLa
# Assay: Antiproliferative activity against human HeLa cells assessed as reduction in cell viability incubated for 72 hrs by MTT assay
# Format: functional, cell-based
# Settings: not given
row,Compound,IC50
1,COc1ccc(N2C(=O)COc3ccc(-c4cccc(NS(=O)(=O)c5ccc(F)cc5)c4)cc32)cc1,13.2 µM
2,COc1ncc(-c2ccc3c(c2)N(C2CCCCC2)C(=O)CO3)cc1NS(=O)(=O)c1ccc(F)cc1,6.1 µM
3,O=C1COc2ccc(-c3ccc(O)cc3)cc2N1c1ccc(Cl)cc1,> 40 µM
4,Cc1ccc(N2C(=O)COc3ccc(-c4cnc(Cl)c(NS(=O)(=O)c5ccc(F)cc5)c4)cc32)cc1,32.3 µM
5,O=C1COc2ccc(-c3cnc4ccccc4c3)cc2N1c1ccc(Cl)cc1,> 40 µM
6,O=C1COc2ccc(-c3ccc(O)cc3)cc2N1,> 40 µM
7,COc1ncc(-c2ccc3c(c2)N(c2ccc(F)cc2)C(=O)CO3)cc1NS(=O)(=O)c1ccc(F)cc1,10.5 µM
8,O=C1COc2ccc(-c3cnc(Cl)c(NS(=O)(=O)c4ccc(F)cc4)c3)cc2N1C1CC1,7.18 µM
9,O=C1COc2ccc(-c3cccc(NS(=O)(=O)c4ccc(F)cc4)c3)cc2N1C1CC1,> 40 µM
10,COc1ccc(N2C(=O)COc3ccc(-c4ccc(O)cc4)cc32)cc1,16.4 µM
11,Cc1ccc(N2C(=O)COc3ccc(-c4ccc(O)cc4)cc32)cc1,> 40 µM

# Target: PI3-kinase p110-delta/p85-alpha (Homo sapiens, UniProt O00329)
# Assay: Inhibition of recombinant human full length N-terminal GST-tagged PI3Kdelta (1 to 1044 residues)/PIK3R1 (1 to 724 residues) expressed in baculovirus expression system using PIP2 as substrate incubated for 2 hrs by ADP-Glo assay
# Settings: not given
# PI3-kinase p110-delta/p85-alpha, sequence (P27986 whole entry, the tested form may be a part): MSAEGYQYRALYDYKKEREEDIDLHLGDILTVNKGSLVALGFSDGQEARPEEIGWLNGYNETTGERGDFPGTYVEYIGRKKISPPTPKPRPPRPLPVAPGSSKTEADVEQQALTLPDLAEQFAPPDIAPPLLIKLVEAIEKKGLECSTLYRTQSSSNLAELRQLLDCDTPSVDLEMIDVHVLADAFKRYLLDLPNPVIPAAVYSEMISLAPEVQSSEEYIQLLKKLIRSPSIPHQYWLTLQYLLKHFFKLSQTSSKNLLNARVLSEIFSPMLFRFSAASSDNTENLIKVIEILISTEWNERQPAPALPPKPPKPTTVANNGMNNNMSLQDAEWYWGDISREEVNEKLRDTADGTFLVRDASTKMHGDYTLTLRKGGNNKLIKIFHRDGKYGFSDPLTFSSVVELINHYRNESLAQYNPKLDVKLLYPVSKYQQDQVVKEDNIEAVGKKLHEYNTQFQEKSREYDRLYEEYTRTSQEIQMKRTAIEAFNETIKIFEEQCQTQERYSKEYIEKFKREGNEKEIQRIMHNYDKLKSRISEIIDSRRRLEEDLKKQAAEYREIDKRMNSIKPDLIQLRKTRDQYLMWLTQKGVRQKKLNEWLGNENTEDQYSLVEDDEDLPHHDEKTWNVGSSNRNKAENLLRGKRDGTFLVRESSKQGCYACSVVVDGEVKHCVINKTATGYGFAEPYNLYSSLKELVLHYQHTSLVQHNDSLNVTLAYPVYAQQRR
# PI3-kinase p110-delta/p85-alpha, sequence (O00329 whole entry, the tested form may be a part): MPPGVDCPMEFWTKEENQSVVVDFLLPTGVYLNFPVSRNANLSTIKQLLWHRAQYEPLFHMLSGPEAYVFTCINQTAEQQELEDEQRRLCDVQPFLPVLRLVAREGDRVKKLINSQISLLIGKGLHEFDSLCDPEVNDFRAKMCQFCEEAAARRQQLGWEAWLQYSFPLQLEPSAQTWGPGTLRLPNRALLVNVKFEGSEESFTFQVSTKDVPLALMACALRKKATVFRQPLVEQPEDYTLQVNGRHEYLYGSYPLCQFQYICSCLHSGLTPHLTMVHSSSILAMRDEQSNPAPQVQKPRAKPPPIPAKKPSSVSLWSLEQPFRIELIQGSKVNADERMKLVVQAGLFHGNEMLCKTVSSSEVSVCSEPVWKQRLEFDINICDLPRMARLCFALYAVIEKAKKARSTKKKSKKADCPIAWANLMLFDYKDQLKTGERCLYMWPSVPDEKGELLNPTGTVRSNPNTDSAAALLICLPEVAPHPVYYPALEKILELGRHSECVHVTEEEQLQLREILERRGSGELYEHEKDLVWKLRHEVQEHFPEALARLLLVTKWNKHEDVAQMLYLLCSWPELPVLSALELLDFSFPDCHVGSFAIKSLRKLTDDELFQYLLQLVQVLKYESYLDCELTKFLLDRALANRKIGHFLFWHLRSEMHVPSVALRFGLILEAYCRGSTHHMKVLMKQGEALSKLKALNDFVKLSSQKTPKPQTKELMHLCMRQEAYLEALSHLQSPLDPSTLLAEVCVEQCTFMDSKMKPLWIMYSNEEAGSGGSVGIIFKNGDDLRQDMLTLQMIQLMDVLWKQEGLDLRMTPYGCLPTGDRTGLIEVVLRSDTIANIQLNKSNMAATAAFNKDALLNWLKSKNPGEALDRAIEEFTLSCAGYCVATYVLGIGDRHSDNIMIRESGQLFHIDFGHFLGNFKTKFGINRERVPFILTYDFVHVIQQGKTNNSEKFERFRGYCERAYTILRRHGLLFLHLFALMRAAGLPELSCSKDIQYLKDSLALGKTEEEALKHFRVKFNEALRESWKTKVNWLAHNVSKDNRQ
row,Compound,IC50
1,COc1ccc(N2C(=O)COc3ccc(-c4cccc(NS(=O)(=O)c5ccc(F)cc5)c4)cc32)cc1,> 1 µM
2,COc1ncc(-c2ccc3c(c2)N(C2CCCCC2)C(=O)CO3)cc1NS(=O)(=O)c1ccc(F)cc1,0.406 µM
3,O=C1COc2ccc(-c3ccc(O)cc3)cc2N1c1ccc(Cl)cc1,> 1 µM
4,Cc1ccc(N2C(=O)COc3ccc(-c4cnc(Cl)c(NS(=O)(=O)c5ccc(F)cc5)c4)cc32)cc1,0.0037 µM
5,O=C1COc2ccc(-c3cnc4ccccc4c3)cc2N1c1ccc(Cl)cc1,> 1 µM
6,O=C1COc2ccc(-c3ccc(O)cc3)cc2N1,> 1 µM
7,COc1ncc(-c2ccc3c(c2)N(c2ccc(F)cc2)C(=O)CO3)cc1NS(=O)(=O)c1ccc(F)cc1,0.019 µM
8,O=C1COc2ccc(-c3cnc(Cl)c(NS(=O)(=O)c4ccc(F)cc4)c3)cc2N1C1CC1,0.062 µM
9,O=C1COc2ccc(-c3cccc(NS(=O)(=O)c4ccc(F)cc4)c3)cc2N1C1CC1,> 1 µM
10,COc1ccc(N2C(=O)COc3ccc(-c4ccc(O)cc4)cc32)cc1,> 1 µM
11,Cc1ccc(N2C(=O)COc3ccc(-c4ccc(O)cc4)cc32)cc1,> 1 µM

# System: HCT-116
# Assay: Antiproliferative activity against human HCT116 cells assessed as reduction in cell viability incubated for 72 hrs by MTT assay
# Format: functional, cell-based
# Settings: HCT-116, 72 h
row,Compound,IC50
1,COc1ccc(N2C(=O)COc3ccc(-c4cccc(NS(=O)(=O)c5ccc(F)cc5)c4)cc32)cc1,28.3 µM
2,COc1ncc(-c2ccc3c(c2)N(C2CCCCC2)C(=O)CO3)cc1NS(=O)(=O)c1ccc(F)cc1,> 40 µM
3,O=C1COc2ccc(-c3ccc(O)cc3)cc2N1c1ccc(Cl)cc1,39.6 µM
4,Cc1ccc(N2C(=O)COc3ccc(-c4cnc(Cl)c(NS(=O)(=O)c5ccc(F)cc5)c4)cc32)cc1,34.3 µM
5,O=C1COc2ccc(-c3cnc4ccccc4c3)cc2N1c1ccc(Cl)cc1,36.1 µM
6,O=C1COc2ccc(-c3ccc(O)cc3)cc2N1,> 40 µM
7,COc1ncc(-c2ccc3c(c2)N(c2ccc(F)cc2)C(=O)CO3)cc1NS(=O)(=O)c1ccc(F)cc1,> 40 µM
8,O=C1COc2ccc(-c3cnc(Cl)c(NS(=O)(=O)c4ccc(F)cc4)c3)cc2N1C1CC1,12.4 µM
9,O=C1COc2ccc(-c3cccc(NS(=O)(=O)c4ccc(F)cc4)c3)cc2N1C1CC1,> 40 µM
10,COc1ccc(N2C(=O)COc3ccc(-c4ccc(O)cc4)cc32)cc1,26.1 µM
11,Cc1ccc(N2C(=O)COc3ccc(-c4ccc(O)cc4)cc32)cc1,> 40 µM

# System: MCF7
# Assay: cells
# Settings: Homo sapiens, MCF7, 72 h
row,Compound,IC50
1,COc1ccc(N2C(=O)COc3ccc(-c4cccc(NS(=O)(=O)c5ccc(F)cc5)c4)cc32)cc1,32.4 µM
2,COc1ncc(-c2ccc3c(c2)N(C2CCCCC2)C(=O)CO3)cc1NS(=O)(=O)c1ccc(F)cc1,30.1 µM
3,O=C1COc2ccc(-c3ccc(O)cc3)cc2N1c1ccc(Cl)cc1,> 40 µM
4,Cc1ccc(N2C(=O)COc3ccc(-c4cnc(Cl)c(NS(=O)(=O)c5ccc(F)cc5)c4)cc32)cc1,32.6 µM
5,O=C1COc2ccc(-c3cnc4ccccc4c3)cc2N1c1ccc(Cl)cc1,> 40 µM
6,O=C1COc2ccc(-c3ccc(O)cc3)cc2N1,> 40 µM
7,COc1ncc(-c2ccc3c(c2)N(c2ccc(F)cc2)C(=O)CO3)cc1NS(=O)(=O)c1ccc(F)cc1,> 40 µM
8,O=C1COc2ccc(-c3cnc(Cl)c(NS(=O)(=O)c4ccc(F)cc4)c3)cc2N1C1CC1,16.7 µM
9,O=C1COc2ccc(-c3cccc(NS(=O)(=O)c4ccc(F)cc4)c3)cc2N1C1CC1,> 40 µM
10,COc1ccc(N2C(=O)COc3ccc(-c4ccc(O)cc4)cc32)cc1,17.3 µM
11,Cc1ccc(N2C(=O)COc3ccc(-c4ccc(O)cc4)cc32)cc1,26.2 µM

# System: A-375
# Assay: Antiproliferative activity against human A375 cells assessed as reduction in cell viability incubated for 72 hrs by MTT assay
# Format: functional, cell-based
# Settings: A-375, 72 h
row,Compound,IC50
1,COc1ccc(N2C(=O)COc3ccc(-c4cccc(NS(=O)(=O)c5ccc(F)cc5)c4)cc32)cc1,38.5 µM
2,COc1ncc(-c2ccc3c(c2)N(C2CCCCC2)C(=O)CO3)cc1NS(=O)(=O)c1ccc(F)cc1,> 40 µM
3,O=C1COc2ccc(-c3ccc(O)cc3)cc2N1c1ccc(Cl)cc1,> 40 µM
4,Cc1ccc(N2C(=O)COc3ccc(-c4cnc(Cl)c(NS(=O)(=O)c5ccc(F)cc5)c4)cc32)cc1,38.9 µM
5,O=C1COc2ccc(-c3cnc4ccccc4c3)cc2N1c1ccc(Cl)cc1,> 40 µM
6,O=C1COc2ccc(-c3ccc(O)cc3)cc2N1,> 40 µM
7,COc1ncc(-c2ccc3c(c2)N(c2ccc(F)cc2)C(=O)CO3)cc1NS(=O)(=O)c1ccc(F)cc1,> 40 µM
8,O=C1COc2ccc(-c3cnc(Cl)c(NS(=O)(=O)c4ccc(F)cc4)c3)cc2N1C1CC1,21.8 µM
9,O=C1COc2ccc(-c3cccc(NS(=O)(=O)c4ccc(F)cc4)c3)cc2N1C1CC1,> 40 µM
10,COc1ccc(N2C(=O)COc3ccc(-c4ccc(O)cc4)cc32)cc1,> 40 µM
11,Cc1ccc(N2C(=O)COc3ccc(-c4ccc(O)cc4)cc32)cc1,> 40 µM

# System: A549
# Assay: cells
# Settings: Homo sapiens, A549, 72 h
row,Compound,IC50
1,COc1ccc(N2C(=O)COc3ccc(-c4cccc(NS(=O)(=O)c5ccc(F)cc5)c4)cc32)cc1,38.2 µM
2,COc1ncc(-c2ccc3c(c2)N(C2CCCCC2)C(=O)CO3)cc1NS(=O)(=O)c1ccc(F)cc1,24.6 µM
3,O=C1COc2ccc(-c3ccc(O)cc3)cc2N1c1ccc(Cl)cc1,> 40 µM
4,Cc1ccc(N2C(=O)COc3ccc(-c4cnc(Cl)c(NS(=O)(=O)c5ccc(F)cc5)c4)cc32)cc1,30.9 µM
5,O=C1COc2ccc(-c3cnc4ccccc4c3)cc2N1c1ccc(Cl)cc1,> 40 µM
6,O=C1COc2ccc(-c3ccc(O)cc3)cc2N1,> 40 µM
7,COc1ncc(-c2ccc3c(c2)N(c2ccc(F)cc2)C(=O)CO3)cc1NS(=O)(=O)c1ccc(F)cc1,6.5 µM
8,O=C1COc2ccc(-c3cnc(Cl)c(NS(=O)(=O)c4ccc(F)cc4)c3)cc2N1C1CC1,4.33 µM
9,O=C1COc2ccc(-c3cccc(NS(=O)(=O)c4ccc(F)cc4)c3)cc2N1C1CC1,> 40 µM
10,COc1ccc(N2C(=O)COc3ccc(-c4ccc(O)cc4)cc32)cc1,> 40 µM
11,Cc1ccc(N2C(=O)COc3ccc(-c4ccc(O)cc4)cc32)cc1,> 40 µM

# Target: Serine/threonine-protein kinase mTOR (Homo sapiens, UniProt P42345)
# Assay: Inhibition of recombinant human N-terminal FLAG-tagged mTOR (1362 to end residues) using Ulight-4E-BP1 as substrate incubated for 30 mins by fluorescence assay
# Settings: not given
row,Compound,IC50
1,COc1ccc(N2C(=O)COc3ccc(-c4cccc(NS(=O)(=O)c5ccc(F)cc5)c4)cc32)cc1,> 1 µM
2,COc1ncc(-c2ccc3c(c2)N(C2CCCCC2)C(=O)CO3)cc1NS(=O)(=O)c1ccc(F)cc1,0.873 µM
3,O=C1COc2ccc(-c3ccc(O)cc3)cc2N1c1ccc(Cl)cc1,> 1 µM
4,Cc1ccc(N2C(=O)COc3ccc(-c4cnc(Cl)c(NS(=O)(=O)c5ccc(F)cc5)c4)cc32)cc1,0.0194 µM
5,O=C1COc2ccc(-c3cnc4ccccc4c3)cc2N1c1ccc(Cl)cc1,> 1 µM
6,O=C1COc2ccc(-c3ccc(O)cc3)cc2N1,> 1 µM
7,COc1ncc(-c2ccc3c(c2)N(c2ccc(F)cc2)C(=O)CO3)cc1NS(=O)(=O)c1ccc(F)cc1,0.0349 µM
8,O=C1COc2ccc(-c3cnc(Cl)c(NS(=O)(=O)c4ccc(F)cc4)c3)cc2N1C1CC1,0.267 µM
9,O=C1COc2ccc(-c3cccc(NS(=O)(=O)c4ccc(F)cc4)c3)cc2N1C1CC1,> 1 µM
10,COc1ccc(N2C(=O)COc3ccc(-c4ccc(O)cc4)cc32)cc1,> 1 µM
11,Cc1ccc(N2C(=O)COc3ccc(-c4ccc(O)cc4)cc32)cc1,> 1 µM
